Source: patent publication US9394284B2, “Compounds act at multiple prostaglandin receptors giving a general anti-inflammatory response” (Allergan, Inc., priority 2010, dated 2016)

What was measured:
Assay type in all cases: cell-based
[1] = molecular target: T1, human prostanoid FP receptor (Homo sapiens, UniProt P43088); assay: FLIPR Ca2+ signaling antagonist assay, FP receptor stable cell line; settings: HEK-293 EBNA stable cell line; standard agonist 17-phenyl-PGF2α; NA = inactive (no antagonism or Kb 10,000 nM); PAg, Ag not defined
T1 construct: expressed in transfected cells
T1 sequence (P43088 whole entry): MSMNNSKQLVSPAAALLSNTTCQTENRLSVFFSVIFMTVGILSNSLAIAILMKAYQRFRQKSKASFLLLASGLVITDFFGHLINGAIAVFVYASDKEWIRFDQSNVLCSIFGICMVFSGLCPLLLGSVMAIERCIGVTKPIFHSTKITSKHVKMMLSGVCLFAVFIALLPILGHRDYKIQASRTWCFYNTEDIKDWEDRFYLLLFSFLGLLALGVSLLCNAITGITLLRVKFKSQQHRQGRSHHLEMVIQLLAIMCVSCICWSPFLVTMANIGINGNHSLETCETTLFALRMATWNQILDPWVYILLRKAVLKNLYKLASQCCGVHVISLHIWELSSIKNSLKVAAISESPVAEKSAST
In short: (§1)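 Peak Fluo-4 fluorescence (ex 470–495, em 515–575 nm) was read for 3.5 min on FLIPR after agonist injection and expressed relative to 10^−6 M standard agonist. Cells were HEK-293 EBNA transfectants. Test compound was added 4.5 min beforehand at 0.1–30 μM, or 0.067–1 μM for TP.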

[2] = molecular target: T2, human prostanoid DP1 receptor (Homo sapiens, UniProt Q13258); assay: FLIPR Ca2+ signaling antagonist assay, DP1 receptor stable cell line; settings: HEK-293 EBNA stable cell line; standard agonist BW 245C; NA = inactive (no antagonism or Kb 10,000 nM); PAg, Ag not defined
T2 construct: expressed in transfected cells
T2 sequence (Q13258 1-359): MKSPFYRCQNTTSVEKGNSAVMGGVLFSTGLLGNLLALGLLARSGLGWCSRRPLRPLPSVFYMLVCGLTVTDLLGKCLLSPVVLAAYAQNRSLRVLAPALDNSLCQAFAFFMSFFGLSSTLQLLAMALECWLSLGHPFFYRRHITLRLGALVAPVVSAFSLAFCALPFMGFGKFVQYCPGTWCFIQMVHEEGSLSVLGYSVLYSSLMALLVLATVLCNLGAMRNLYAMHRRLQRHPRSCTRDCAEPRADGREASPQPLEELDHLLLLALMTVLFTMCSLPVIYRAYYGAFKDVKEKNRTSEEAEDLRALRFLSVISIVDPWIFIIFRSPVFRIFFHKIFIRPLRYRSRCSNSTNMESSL
In short: as §1

[3] = molecular target: T3, human prostanoid EP4 receptor (Homo sapiens, UniProt P35408); assay: FLIPR Ca2+ signaling antagonist assay, EP4 receptor stable cell line; settings: HEK-293 EBNA stable cell line; standard agonist PGE2; NA = inactive (no antagonism or Kb 10,000 nM); PAg, Ag not defined
T3 construct: expressed in transfected cells
T3 sequence (P35408 whole entry): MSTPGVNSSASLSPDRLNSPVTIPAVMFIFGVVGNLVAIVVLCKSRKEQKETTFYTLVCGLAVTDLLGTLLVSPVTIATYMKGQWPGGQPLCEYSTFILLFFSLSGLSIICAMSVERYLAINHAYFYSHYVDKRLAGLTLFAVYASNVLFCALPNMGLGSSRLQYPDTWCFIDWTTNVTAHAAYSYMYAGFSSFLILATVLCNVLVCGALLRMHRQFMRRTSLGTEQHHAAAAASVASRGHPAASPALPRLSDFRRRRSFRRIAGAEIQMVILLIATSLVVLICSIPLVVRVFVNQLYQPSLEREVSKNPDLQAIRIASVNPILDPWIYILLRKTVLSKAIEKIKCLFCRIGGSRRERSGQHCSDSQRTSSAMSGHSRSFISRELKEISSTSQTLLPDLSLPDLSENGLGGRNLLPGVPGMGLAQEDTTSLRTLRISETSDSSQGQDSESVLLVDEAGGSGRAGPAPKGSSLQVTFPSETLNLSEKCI
In short: as §1

[4] = molecular target: T4, human prostanoid TP receptor (Homo sapiens, UniProt P21731); assay: FLIPR Ca2+ signaling antagonist assay, TP receptor stable cell line; settings: HEK-293 EBNA stable cell line; standard agonist U-46619; NA = inactive (no antagonism or Kb 10,000 nM); PAg, Ag not defined
T4 construct: expressed in transfected cells
T4 sequence (P21731 1-343): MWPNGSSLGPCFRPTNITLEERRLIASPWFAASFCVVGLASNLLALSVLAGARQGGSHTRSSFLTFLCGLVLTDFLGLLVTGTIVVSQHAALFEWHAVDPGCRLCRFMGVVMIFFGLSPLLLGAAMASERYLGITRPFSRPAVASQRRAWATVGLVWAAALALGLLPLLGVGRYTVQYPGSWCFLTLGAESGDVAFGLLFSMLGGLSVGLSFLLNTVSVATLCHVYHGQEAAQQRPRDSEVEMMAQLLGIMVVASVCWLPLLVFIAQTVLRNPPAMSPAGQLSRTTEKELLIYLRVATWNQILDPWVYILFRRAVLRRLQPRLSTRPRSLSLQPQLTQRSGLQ
In short: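 Functional antagonism measured by Ca2+ flux at 37 °C. Agonist ranges were 10^−11 to 10^−5 M, or 10^−12 to 10^−6 M for TP with U-46619; PGE2 for EP1/EP3, BW 245C for DP1. Compound spanned 0.1–30 μM except TP, 0.067–1 μM.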

SMILES | Kb [1] [nM] | Kb [2] [nM] | Kb [3] [nM] | Kb [4] [nM] | EP4 (FLIPR) Kb [3] | TP (FLIPR) Kb [4] | FP (FLIPR) Kb [1]
CCCCC(CC)COc1ccc(Br)cc1Cn1nc(CCC(=O)O)cc1C (stereo not drawn) [Example 6, 3-[1-(5-Bromo-2-(2-ethyl-hexyloxy)-benzyl)-5-methyl-1H-pyrazol-3-yl]-propionic acid] | 400 | 180 | 1100 | 10 |  |  | 
CCCC(C)COc1ccc(Br)cc1Cn1nc(CCC(=O)O)cc1C (stereo not drawn) [Example 8, 3-[1-(5-Bromo-2-(2-methyl-pentyloxy)-benzyl)-5-methyl-1H-pyrazol-3-yl]-propionic acid] | 90 | 110 | 400 | 1 |  |  | 
Cc1cc(CCC(=O)O)nn1Cc1cc(Br)ccc1OCC1(C(F)(F)F)CCC1 [Example 13, 3-[1-(5-Bromo-2-(1-trifluoromethylcyclobutylmethoxy)-benzyl)-5-methyl-1H-pyrazol-3-yl]-propionic acid] | 100 | 900 | 1000 | 10 |  |  | 
CCC(CC)COc1ccc(Br)cc1Cn1nc(CCC(=O)NS(=O)(=O)C(F)(F)F)cc1C [Example 17, N-(3-{1-[5-Bromo-2-(2-ethyl-butoxy)-benzyl]-5-methyl-1H-pyrazol-3-yl}-propionyl)-C,C,C-trifluoro-methanesulfonamide] | 400 | 200 | 35 | < 1 |  |  | 
Cc1cc(CCC(=O)NS(=O)(=O)C(F)(F)F)nn1Cc1cc(Br)ccc1OCC(C)C [Example 19, N-(3-{1-[5-Bromo-2-isobutoxybenzyl]-5-methyl-1H-pyrazol-3-yl}-propionyl)-C,C,C-trifluoro-methanesulfonamide] | 220 | 200 | 30 | 1 |  |  | 
Cc1cc(CCC(=O)NS(=O)(=O)CC(F)(F)F)nn1Cc1cc(Cl)ccc1OCc1ccc(Cl)cc1 [Example 25, 2,2,2-trifluoroethanesulfonic acid-(3-[1-(5-Chloro-2-(4-chlorobenzyloxy)benzyl)-5-methyl-1H-pyrazol-3-yl]-propionyl)amide] | 400 | 1330 |  | < 1 | Ag |  | 
Cc1cc(CCC(=O)O)nn1Cc1cc(Cl)ccc1OCc1ccc(Cl)cc1Cl [Example 26, 3-[1-(5-Chloro-2-(2,4-dichlorobenzyloxy)benzyl)-5-methyl-1H-pyrazol-3-yl]-propionic acid] | 140 | 500 | 8400 |  |  | PAg | 
Cc1cc(CCC(=O)NS(=O)(=O)C(F)(F)F)nn1Cc1cc(Cl)ccc1OCc1ccc(Cl)cc1Cl [Example 27, N-(3-[1-(5-Chloro-2-(2,4-dichlorobenzyloxy)benzyl)-5-methyl-1H-pyrazol-3-yl]-propionyl)C,C,C-trifluoromethanesulfonamide] | 90 | 200 | 150 |  |  | PAg | 
CCC(CC)COc1ccc(Br)cc1Cn1nc(CCC(=O)O)cc1C(C)C [Example 55, 3-{1-[5-Bromo-2-(2-ethyl-butoxy)-benzyl]-5-isopropyl-1H-pyrazol-3-yl}-propionic acid] | 110 | 540 | 80 | 250 |  |  | 
CCCc1cc(CCC(=O)O)nn1Cc1cc(Br)ccc1OCC(CC)CC [Example 56, 3-{1-[5-Bromo-2-(2-ethyl-butoxy)-benzyl]-5-propyl-1H-pyrazol-3-yl}-propionic acid] | 900 | 800 | 3 | 70 |  |  | 
CCC(CC)COc1ccc(Br)cc1Cn1nc(CCC(=O)O)cc1C(C)(C)C [Example 57, 3-{1-[5-Bromo-2-(2-ethyl-butoxy)-benzyl]-5-tert-butyl-1H-pyrazol-3-yl}-propionic acid] | 500 | 1600 | 700 | 500 |  |  | 
CCC(CC)COc1ccc(Br)cc1Cn1nc(CCC(=O)O)cc1C(F)(F)F [Example 58, 3-{1-[5-Bromo-2-(2-ethyl-butoxy)-benzyl]-5-trifluororomethyl-1H-pyrazol-3-yl}-propionic acid] |  | 60 |  | 150 | PAg |  | PAg
Cc1cc(CC(C)(C)C(=O)O)nn1Cc1cc(Br)ccc1OCC1CCCC1 [Example 71, 3-{1-[5-Bromo-2-(2-cyclopentylmethoxy)-benzyl]-5-methyl-1H-pyrazol-3-yl}-2,2-dimethyl-propionic acid] | 200 | 900 | 80 | 8 |  |  | 
Cc1cc(CCC(=O)O)nn1Cc1cc(Cl)ccc1C#CC1CCCC1 [Example 73, 3-{1-[5-Chloro-2-cyclopentylethynyl-benzyl]-5-methyl-1H-pyrazol-3-yl}-propionic acid] | 50 | 700 | 600 | 2 |  |  | 
Cc1cc(CCC(=O)NS(=O)(=O)C(F)(F)F)nn1Cc1cc(Cl)ccc1CCC1CCCC1 [Example 75] | 1500 | 350 | 1000 | 12 |  |  | 
